The text below walks through data of patent US20070299084A1, “Indole Derivatives Useful for Treating Resistance to Antitumor Agents” (NIKEM RESE S.R.L., priority 2004, published 2007).

The test system of test [1] is H460 cells (human lung carcinoma). As to the kind of experiment: Invasion assay (Matrigel chemoinvasion). In kind it is cell-based. How it is done:
(§1) Human Lung Carcinoma:H460: maintained in RPMI1640 medium+10% FCS.
(§2) H460 cells were seeded in complete medium and treated with different compound concentrations for 24 h. Then, cells were harvested and transferred to 24-well Transwell chambers (Costar) in serum-free medium in the following ways:
invasion assay: Transwell membranes were coated with 12.5 μg/well of Matrigel (BD Biosciences) and dried for 24 h. After this, 2.4×10^5 cells/well were seeded onto the artificial basement membrane in upper chamber, and drug was added as described for migration assay. After 24 h of incubation at 37° C., cells that invaded the Matrigel and migrated to the lower chamber were stained and counted as described for migration assay.

The test system is the same in test [2]. As to the kind of experiment: Migration assay (Transwell chemotaxis). In kind it is cell-based. The settings on record: after 24 h incubation. How it is done:
as §1, §2
migration assay: 1.2×10^5 cells/well were seeded in the upper chamber, and the drug was added, in the same concentrations utilized before, in both upper and lower chambers. After 4 h of incubation at 37° C., migrated cells were fixed in 95% ethanol, stained with a 2% crystal violet in 70% ethanol solution, and counted by an inverted microscope.

Test [3] has as its system A2780 cells (human ovarian carcinoma). As to the kind of experiment: Antiproliferative activity, 48 h treatment, ATPlite luminescence assay, A2780. In kind it is cell-based. Conditions: Homo sapiens, A2780, 48 h, read-out: Antiproliferative activity (IC50 ± S.D., μM) A2780. How it is done:
(§3) 24 hours after seeding, an aliquot (10 μl) of the drug at the various concentrations is added (for each concentration there are 3 replicates). After 48 hours of treatment the antiproliferative effect is evaluated with a luminescence assay (Perkin Elmer Life Sciences ATPlite):
(§4) 50 μl of a lysis solution are added to each well followed by an equal volume of a solution containing luciferase and D-luciferin. The ATP present in all the metabolically active cells brings about the transformation reaction of D-luciferin, catalysed by luciferase, to produce a luminescent signal as described in the following scheme: ATP+D-luciferin+O2→Oxyluciferin+AMP+PPi+CO2+Light
(§5) The luminescence produced (expressed in counts per second, CPS) is measured by means of a microplate scintillation analyzer (Perkin Elmer Life Sciences Top Count).
(§6) Percentage inhibition of luminescence in the treated cells compared to the control is calculated; concentration-response curves are then analysed using Grafit v.5.0.

Test [4] concerns HCT116 cells (human colon carcinoma). The test is described as follows: Antiproliferative activity, 72 h treatment, SRB assay, HCT116. Format: cell-based. How it is done: HCT116 maintained in RPMI 1640 medium+10% FCS.
The cells (HT29 and HT29/Mit:. 40,000 cells/ml, LoVo, LoVo/Dx and HCT116: 50,000 cells/ml) are seeded in 100 μl of the respective culture media in 96-well plates. 24 hours after seeding, an aliquot (10 μl) of drug at the various concentrations is added. In the samples in which the effect of the combination of two compounds is to be tested the inhibitor is added immediately before the cytotoxic. For each dose or combination of doses/drugs the effect of the treatment is determined in 4-8 replicates.
After 72 hours of treatment the antiproliferative effect is evaluated using the sulforhodamine B (SRB) assay: the cells are fixed by adding 25 μl of 50% TCA to each well and left for 1 hour at 4° C. After washing them with water and allowing them to dry, 100 μl of 0.4% SRB in 1% acetic acid are added and left for 30 minutes at room temperature. After 4 washes in 1% acetic acid, they are left to dry, then the dye fixed by the proteins is dissolved under basic conditions with 100 μl 10 mM cold Tris and the solution is read using a spectrophotometer at 550 nm.
Percentage cell growth is calculated as the optical density of treated samples compared to the optical density of controls (untreated cells).
The Combination Index (C.I.) was determined according to Kern's method, 1988 (who continued from Drewinko B, 1976) (Kern D. H., Cancer Res. 48, 117-121, 1988; Drewinko B., Cancer Biochem. Biophys. 1, 187-195, 1976) by means of the following formula: […], where SFa and SFb are the fractions of cells surviving to treatment with compound a and b, respectively; SFab is the fraction surviving to the combination of compounds a and b.

The test system of test [5] is LoVo cells (human colon carcinoma). As to the kind of experiment: Antiproliferative activity, 72 h treatment, SRB assay, LoVo. In kind it is cell-based. The text has this: (§7) LoVo and LoVo/Dx (line obtained by prolonged exposure to doxorubicin and characterised by overerexpression of P-glycoprotein, which confers resistance to doxorubicin): maintained in HAM-F12 medium+10% FCS.

For test [6], the system named is SK-N-BE(2) cells (human neuroblastoma). The test is described as follows: Antiproliferative activity, 48 h treatment, ATPlite luminescence assay, SK-N-BE(2). Format: cell-based. The settings on record: Homo sapiens, SKNBE2, 48 h, read-out: Antiproliferative activity (IC50 ± S.D., μM) SK-N-BE(2). How it is done: SH-SY5Y and SK-N-BE(2): maintained in HAM-F12 medium+10% FCS.
as §3, §4, §5, §6

Test [7] concerns H460 spontaneous lung metastasis. As to the kind of experiment: H460 xenograft, spontaneous lung metastasis (antimetastatic activity). Format: in vivo, athymic Swiss nude mice. Conditions: topotecan 1 mg/kg, compound of example 2 30 mg/kg p.o. How it is done:
At day 63, tumor-bearing mice were sacrificed by cervical dislocation and their lungs were removed and weighed. Lung lobes were spliced between two glass slides and the metastatic nodules were macroscopically counted against a bright light (Corti C, J. Cancer Res. Clin. Oncol. 122, 154-60, 1996). […] Reading of metastasis was performed by two independent observers, unaware of the experimental group, with an interobserver reproducibility >95%. The metastatic nature of these areas was confirmed by histological analysis of digital images obtained by Image Analysis System software (Delta System, Rome, Italy).

In test [8] the test system is LoVo/Dx cells (doxorubicin-resistant human colon carcinoma, P-glycoprotein overexpression). The test is described as follows: Antiproliferative activity, 72 h treatment, SRB assay, LoVo/Dx. Format: cell-based.
Description: as §7

Setting [9] is: cell line not stated in the sentence (follows LoVo/DX).

For the compound `CCOc1cc(C(=O)NC2CC(C)(C)NC(C)(C)C2)ccc1-c1cc2cc(Cl)c(Cl)cc2[nH]1` [Example 2], the inhibition at 2.2 µM in test [1] (NCI-H460, 2.2 μM) turned out to be 92%; in test [2] (NCI-H460, 2.2 μM), 51%. Further, the inhibition at 5.7 µM in test [1] (NCI-H460, 5.7 μM) turned out to be 100%; in test [2] (NCI-H460, 5.7 μM), 92%. The IC50 in test [3] came to 1.9 ± 0.1 µM; in test [4] (Homo sapiens, HCT-116, 72 h, read-out: Antiproliferative activity (IC50 ± S.D., μM) HCT116), 2.4 ± 0.9 µM; in test [5] (Homo sapiens, LoVo, 72 h, read-out: Antiproliferative activity (IC50 ± S.D., μM) LoVo) it was 2.4 ± 1.4 µM; in test [6] it was 3.7 ± 0.2 µM; in test [8] (Homo sapiens, LoVo/DX, 72 h, read-out: Antiproliferative activity (IC50 ± S.D., μM) LoVo/Dx), 3 ± 1.3 µM. Further, the Interaction with cisplatin result in test [4] (HCT116 line, subtoxic and subactive concentrations) is on record as “significant synergistic effect”. Moreover, the “Interaction with SN38” value is on record as “synergism” in test [5] (LoVo line) and “even more evident” in test [8] (LoVo/DX variant (MDR phenotype), compared with LoVo). Moreover, the figures for the Interaction with taxol result in test [5] (LoVo line) and in test [8] (setting [9]) were “synergism” and “Synergistic interactions”, respectively. Moreover, the “Lung No. Metastasis (range)” value in test [7] (day 63) was “reduced”; in test [7] (day 63, listed as Compound of example 2) it was 15 (3-56). In addition, in test [7] (day 63), the “Lung Weight (mg) (mean ± S.D.)” value stood at 177 ± 30 mg. In addition, the “Lung metastasis Inhibition %” value in test [7] (inhibition of number of metastasis vs controls) is given as 42%. In addition, the Interaction with doxorubicin entry in test [8] (setting [9]) is recorded as “Synergistic interactions”.
